Test results taken from patent publication US20120308554A1, “VEGF-D/VEGFR2/3-MEDIATED REGULATION OF DENDRITES” (UNIVERSITAT HEIDELBERG, priority 2011, published 2012).

Columns and labels:
Assay type in all cases: cell-based, mice
[1] = test system: hippocampal neurons; test: Morphometric analyses (total dendritic length, Sholl analysis, spine density) of cultured hippocampal neurons
Experimental: Hippocampal neurons from newborn C57BL/6 mice were cultured as known in the art. Experiments were done after a culturing period of 10 to 14 days in vitro (DIV). DNA transfection was done on DIV8 using Lipofectamine 2000 (Invitrogen, San Diego, Calif.). For the studies on dendrite morphology, neurons were analyzed 4-5 days after transfection.
For 3D Sholl Analysis, total dendritic length and spine morphology were calculated using Object-Image freeware software with a specific set of macros (written by Dr. E. Ruthazer, McGill University, Quebec). Briefly, a z-Stack acquisition was imported, calibrated in Object-Image and manually traced. Total dendritic length was then computed. For Sholl analysis, the shell interval was set at 5 μm. All analyses were performed blind. In all in vitro experiments, for each condition, a minimum of 12 neurons from three independent preparations was analyzed. For the Golgi staining quantifications of 20 neurons for each condition from 4 different injected animals per viral construct were traced and analyzed.
Hippocampal neurons were fixed with 4% paraformaldehyde at room temperature for 20 min. For immunostaining, primary and secondary antibodies were applied in GDB buffer (30 mM phosphate buffer [pH7.4] containing 0.2% gelatin, 0.5% Triton X-100, and 0.9 M NaCl). For the morphometric analyses, fluorescence images were acquired using a confocal laser-scanning microscope TCS SP2 (Leica, Mannheim, Germany) equipped with an inverted fluorescence microscope DM IRE2 (Leica) and Leica confocal scan software. All images were obtained with sequential acquisition setting at a resolution of 1024×1024 pixels. Each image was a z series projection of images taken at 1 μm intervals.

[2] = test system: VEGFC; test: qRT-PCR analysis of VEGFC expression in hippocampal neurons; conditions: hippocampal neurons infected with rAAV
Experimental: Total RNA was isolated at DIV10 to DIV13 from hippocampal primary neuron cultures or isolated brain tissues with Rneasy Mini Kit (Qiagen, Hilden, Germany) including an optional Dnase I treatment at room temperature for 15 min according to manufacturer's instructions (Qiagen). 1.2 μg of extracted RNA was reverse transcribed into first strand cDNA using High Capacity cDNA Reverse Transcription kit (Applied Biosystems, Foster City, Calif.).
Quantitative reverse transcriptase PCR (qRT-PCR) was done on an ABI7300 thermal cycler using Universal qRT-PCR master mix with TaqMan Gene Expression Assays for the indicated genes (Applied Biosystems). The following TaqMan Gene Expression Assays were used in this study: Gusb (Mm00446953_m1), cFos (Mm00487425_m1), VEGFD (Mm00438965_m1), VEGFC (Mm01202432_m1), VEGF (Mm01281449_m1), VEGFR3 (Mm01292618_m1), beta-actin (Mm00607939_s1), beta-2 microglobulin (Mm00437762_m1), CBP (Mm01342435_m1), p38 MAPK alpha (Mm00442497_m1), p38 MAPK beta (Mm00440955_m1). Expression of target genes was normalized against the expression of Gusb as endogenous control gene. Data were derived from at least 5 independent experiments.

[3] = test system: hippocampal cultures; test: MEA recordings of spontaneous network activity; conditions: infected cultures versus rAAV-shSCR or rAAV-emptymC
Experimental: MEA recordings were done as known in the art. From DIV7 to DIV13, recordings of spontaneous network activity were acquired for 5 min once per day.

shVEGFD: shRNA targeting mouse VEGFD mRNA (GGGCTTCAGGAGCGAACAT; SEQ ID NO: 1), expressed from rAAV vector or plasmid with U6 promoter
total dendritic length and dendritic complexity (Sholl analysis) ([1]; neurons expressing the construct versus control constructs): less complex dendritic arbor and a reduction in total dendritic length
spine density (number of spines/20 μm) ([1]; transfected hippocampal neurons): 6.52±0.51 spines/20 μm
Expression of VEGFC [2]: not affected
spike frequencies [3]: reduced
